The results in this text go back to patent US8748466B2, “Isoxazole derivatives useful as antibacterial agents” (Pfizer Inc., priority 2011, dated 2014).

Experiment [1] deals with T1, Pseudomonas aeruginosa LpxC enzyme (Pseudomonas aeruginosa, UniProt P47205).
T1 construct: made in house; host or cells: E. coli
T1 sequence (P47205 1-303): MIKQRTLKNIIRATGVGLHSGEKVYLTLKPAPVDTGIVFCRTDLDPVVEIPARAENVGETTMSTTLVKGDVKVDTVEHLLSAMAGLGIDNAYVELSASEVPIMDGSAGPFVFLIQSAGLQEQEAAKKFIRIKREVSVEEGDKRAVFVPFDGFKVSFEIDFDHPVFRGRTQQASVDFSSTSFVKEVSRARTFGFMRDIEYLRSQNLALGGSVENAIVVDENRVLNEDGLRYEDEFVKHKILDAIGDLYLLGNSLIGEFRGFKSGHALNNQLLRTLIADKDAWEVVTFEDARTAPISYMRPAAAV
Description: LpxC enzyme IC50 assay (PA LpxC enzyme IC50), BioTrove RapidFire mass spectrometry. Format: biochemical. The method, then: In order to assess the compounds biological activity selected in vitro assays were conducted on selected compounds. One of the assays measured the compounds ability to disrupt the synthesis of lipopolysaccharide, LPS, which is a component of the outer membrane of Gram-negative bacteria. Disruption of this synthesis is lethal to the bacteria. The assay determined the compound's ability to inhibit LpxC, which is the first enzyme in the biosynthetic pathway for LPS (measured as IC50). Additionally, MICs (minimal inhibitory concentrations) were determined for several bacteria. The specific protocols are described below:
A) IC50 Assay LpxC Enzyme from P. aeruginosa Labeled as PA LpxC Enzyme IC50):
At the end of 1 hour, 5 ul of 1 N HCl was added to stop the enzyme reaction, the plates were centrifuged, and then processed with the BioTrove Rapidfire HTMS Mass Spectrometry System. A no-enzyme control was used in calculating the IC50 values from the percent conversion values.

Experiment [2] deals with Pseudomonas aeruginosa UC12120 (mouse virulent). Briefly: MIC determination (CLSI), PA-UC12120. Format: cell-based. The conditions noted are these: UC12120, read-out: PA-UC12120 MIC. The method, then:
(§1) The in vitro antibacterial activity of compounds described in the Examples was evaluated by minimum inhibitory concentration (MIC) testing according to Clinical and Laboratory Standards Institute (CLSI). See: Clinical and Laboratory Standards Institute. Methods for Dilution Antimicrobial Susceptibility Tests for Bacteria that Grow Aerobically; Approved Standard-Eighth Edition. CLSI document M7-A8 [ISBN 1-56238-689-1]. Clinical and Laboratory Standards Institute, 940 West Valley Road, Suite 1400, Wayne, Pa. 19087-1898 USA, 2006; also Clinical and Laboratory Standards Institute. Performance Standards for Antimicrobial Susceptibility Testing; Twentieth Informational Supplement. CLSI document M100-S20 [ISBN1-56238-716-2]. Clinical and Laboratory Standards Institute.
(§2) The MIC determination is a standard laboratory method for evaluating the antibacterial activity of a compound. The MIC represents the lowest drug concentration that inhibits visible growth of bacteria following overnight incubation. […] Typically, the drug concentration range is broken down into 2-fold increments (e.g., 0.06 μg/mL, 0.12 μg/mL. 0.25 μg/mL, 0.50 μg/mL, 1.0 μg/mL, etc.) and the various drug concentrations are all individually incubated overnight with approximately the same number of bacteria. The MIC is then determined by visually inspecting the drug effect at each concentration, and identifying the lowest drug concentration that has inhibited bacterial growth as compared to the drug free control. Typically, bacteria continue to grow at drug concentrations lower than the MIC and don't grow at concentrations at and above the MIC.
(§3) The MIC values described in Tables 4 and 5 below were derived from assays wherein each test compound was evaluated in duplicate. In cases where the duplicate values varied by 0-2-fold, the lower of the two values was reported below. Generally speaking, if the duplicate values varied by more than 2-fold, the assay was considered non-valid and was repeated until the variation between duplicate runs was 2-fold. In line with the CLSI guidelines referred to above, both control organisms and reference compounds were utilized in each MIC assay to provide proper quality control. MIC values generated with these control organisms and reference compounds were required to fall within a defined range for the assay to be considered valid and be included herein. Those skilled in the art will recognize that MIC values can and do vary from experiment to experiment. Generally speaking, it should be recognized that MIC values often vary +/−2-fold from experiment to experiment. While a single MIC is reported for each compound and each microorganism, the reader should not conclude that each compound was only tested once. Several of the compounds were subjected to multiple tests. The data reported in Tables 4 and 5 is reflective of the compound's relative activity and different MICs may have been generated on these occasions in line with the guidelines described above.
(§4) The following bacterial strains were used in these MIC determinations:
1) Pseudomonas aeruginosa UC12120 (mouse virulent) labeled as PA-UC12120 in Tables 4 and 5;

For experiment [3], the system named is Escherichia coli EC-1: VOGEL, mouse virulent. Briefly: MIC determination (CLSI), EC-1. Format: cell-based. The conditions noted are these: read-out: EC-1 MIC. The method, then:
as §1, §2, §3, §4
2) Escherichia coli EC-1: VOGEL, mouse virulent labeled as EC-1 in Tables 4 and 5;

Experiment [4] deals with Acinetobacter baumannii/haemolyticus: Multidrug-resistant clinical isolate AB-3167. Briefly: MIC determination (CLSI), AB-3167. Format: cell-based. The conditions noted are these: overnight incubation, duplicate, lower of the two values reported. The method, then: as §1, §2, §3, §4
3) Acinetobacter baumannii/haemolyticus: Multidrug-resistant clinical isolate labeled as AB-3167 in Tables 4 and 5;

[5] abbreviates: P. aeruginosa LpxC enzyme 0.1 nM, 25° C., 1 hour, pH 8.0, read-out: PA:IC50.

Converted amounts (≈) assume the structure as drawn. Read-outs that look alike come from different tables or passages of the source.

As for `COc1ccccc1OCc1cc(CCC(C)(C(=O)NO)S(C)(=O)=O)no1` (racemic) [Example 12, N-hydroxy-4-{5-[(2-methoxyphenoxy)methyl]isoxazol-3-yl}-2-methyl-2-(methylsulfonyl)butanamide], in experiment [1] (setting [5]), the concentration for half-maximal inhibition (IC50) is 37.4 nM. The MIC in experiment [2], in experiment [3] and in experiment [4] was more than 64 µg/mL throughout.
For `CCCCSC(=O)N(C)Cc1cc(CCC(C)(C(=O)NO)S(C)(=O)=O)no1` (racemic) [Example 14, S-butyl ({3-[4-(hydroxyamino)-3-methyl-3-(methylsulfonyl)-4-oxobutyl]isoxazol-5-yl}methyl)methylthiocarbamate], in experiment [1] (setting [5]), the IC50 is more than 100 nM. Further, the MIC in experiment [2], in experiment [3] and in experiment [4] was more than 64 µg/mL in each case.
As for `COc1ccccc1-c1cc(CCC(C)(C(=O)NO)S(C)(=O)=O)no1` (racemic) [Example 16, N-hydroxy-4-[5-(2-methoxyphenyl)isoxazol-3-yl]-2-methyl-2-(methylsulfonyl)butanamide], the IC50 in experiment [1] (setting [5]) was determined as 40.5 nM. Moreover, the MIC in experiment [2] is 16 µg/mL (≈ 43.4 µM); in experiment [3] it was more than 64 µg/mL; in experiment [4], more than 64 µg/mL.
In the case of `CC(CCc1cc(CC2(O)CCCCC2)on1)(C(=O)NO)S(C)(=O)=O` (racemic) [Example 17, N-hydroxy-4-{5-[(1-hydroxycyclohexyl)methyl]isoxazol-3-yl}-2-methyl-2-(methylsulfonyl)butanamide], in experiment [1] (setting [5]), the IC50 is more than 100 nM. Besides, the MIC in experiment [2], in experiment [3] and in experiment [4] was more than 64 µg/mL in each case.
As to `CC(CCc1cc(-c2cccc(F)c2)on1)(C(=O)NO)S(C)(=O)=O` (racemic) [Example 21, 4-[5-(3-fluorophenyl)isoxazol-3-yl]-N-hydroxy-2-methyl-2-(methylsulfonyl)butanamide], the midpoint of inhibition in experiment [1], the IC50, lay at 6.8 nM. In addition, the MIC was 4 µg/mL (≈ 11.2 µM) in experiment [2], 32 µg/mL (≈ 89.8 µM) in experiment [3] and more than 64 µg/mL in experiment [4].
On to `Cc1cc(-c2cc(CCC(C)(C(=O)NO)S(C)(=O)=O)no2)ccc1OC(F)F` (racemic) [Example 22, 4-{5-[4-(difluoromethoxy)-3-methylphenyl]isoxazol-3-yl}-N-hydroxy-2-methyl-2-(methylsulfonyl)butanamide], for which the IC50 in experiment [1] (setting [5]) is 1.5 nM. For the same molecule, the MIC in experiment [2] was 1 µg/mL (≈ 2.39 µM); in experiment [3] it was 8 µg/mL (≈ 19.1 µM); in experiment [4] it was more than 64 µg/mL.
In the case of `CCOC(=O)N(Cc1cc(CCC(C)(C(=O)NO)S(C)(=O)=O)no1)C(C)C` (racemic) [Example 23, ethyl ({3-[4-(hydroxyamino)-3-methyl-3-(methylsulfonyl)-4-oxobutyl]isoxazol-5-yl}methyl)isopropylcarbamate], in experiment [1] (setting [5]), the IC50 was more than 100 nM. For the same molecule, the MIC in experiment [2], in experiment [3] and in experiment [4] was more than 64 µg/mL throughout.
For the molecule `COc1cccc(OC)c1-c1cc(CCC(C)(C(=O)NO)S(C)(=O)=O)no1` (racemic) [Example 24, 4-[5-(2,6-dimethoxyphenyl)isoxazol-3-yl]-N-hydroxy-2-methyl-2-(methylsulfonyl)butanamide], the IC50 in experiment [1] (setting [5]) was more than 100 nM. The MIC in experiment [2], in experiment [3] and in experiment [4] was more than 64 µg/mL in each case.
For the molecule `CCCCNC(=O)OCc1cc(CCC(C)(C(=O)NO)S(C)(=O)=O)no1` (racemic) [Example 25, {3-[4-(hydroxyamino)-3-methyl-3-(methylsulfonyl)-4-oxobutyl]isoxazol-5-yl}methyl butylcarbamate], the IC50 in experiment [1] (setting [5]) is more than 100 nM. The MIC in experiment [2], in experiment [3] and in experiment [4] was more than 64 µg/mL in each case.
On to `CC(CCc1cc(CNS(=O)(=O)c2ccc(F)cc2)on1)(C(=O)NO)S(C)(=O)=O` (racemic) [Example 27, 4-[5-({[(4-fluorophenyl)sulfonyl]amino}methyl)isoxazol-3-yl]-N-hydroxy-2-methyl-2-(methylsulfonyl)butanamide], for which the IC50 in experiment [1] (setting [5]) is more than 100 nM. Also, the MIC in experiment [2], in experiment [3] and in experiment [4] was more than 64 µg/mL in each case.
Consider `CC(CCc1cc(-c2cccc(Cl)c2Cl)on1)(C(=O)NO)S(C)(=O)=O` (racemic) [Example 30, 4-[5-(2,3-dichlorophenyl)isoxazol-3-yl]-N-hydroxy-2-methyl-2-(methylsulfonyl)butanamide], for which the IC50 in experiment [1] was 2.7 nM. Further, the MIC in experiment [2] was 1 µg/mL (≈ 2.46 µM); in experiment [3] it was 4 µg/mL (≈ 9.82 µM); in experiment [4], more than 64 µg/mL.
For the molecule `CCOC(C)(C)c1cc(CCC(C)(C(=O)NO)S(C)(=O)=O)on1` (racemic) [Example 31, 4-[3-(1-ethoxy-1-methylethyl)isoxazol-5-yl]-N-hydroxy-2-methyl-2-(methylsulfonyl)butanamide], in experiment [1] (setting [5]), the IC50 was more than 100 nM. Also, the MIC in experiment [2], in experiment [3] and in experiment [4] was more than 64 µg/mL each time.
For `COc1cccc(OC)c1-c1cc(CCC(C)(C(=O)NO)S(C)(=O)=O)on1` (racemic) [Example 32, 4-[3-(2,6-dimethoxyphenyl)isoxazol-5-yl]-N-hydroxy-2-methyl-2-(methylsulfonyl)butanamide], in experiment [1] (setting [5]), the IC50 stood at 88.7 nM. Also, the MIC in experiment [2], in experiment [3] and in experiment [4] was more than 64 µg/mL in each case.
With `CC(CCc1cc(-c2ccc3c(c2)OCO3)no1)(C(=O)NO)S(C)(=O)=O` (racemic) [Example 33, 4-[3-(1,3-benzodioxol-5-yl)isoxazol-5-yl]-N-hydroxy-2-methyl-2-(methylsulfonyl)butanamide], the IC50 in experiment [1] (setting [5]) turned out to be 5.1 nM. Moreover, the figures for the MIC in experiment [2], in experiment [3] and in experiment [4] were 2 µg/mL (≈ 5.23 µM), 16 µg/mL (≈ 41.8 µM) and more than 64 µg/mL, respectively.
For `CC(CCc1cc(-c2cccc(F)c2)no1)(C(=O)NO)S(C)(=O)=O` (racemic) [Example 34, 4-[3-(3-fluorophenyl)isoxazol-5-yl]-N-hydroxy-2-methyl-2-(methylsulfonyl)butanamide] the same measures were 9.3 nM, 2 µg/mL (≈ 5.61 µM), 32 µg/mL (≈ 89.8 µM) and more than 64 µg/mL.
For the molecule `CC(CCc1cc(-c2ccc3ccccc3n2)no1)(C(=O)NO)S(C)(=O)=O` (racemic) [Example 35, N-hydroxy-2-methyl-2-(methylsulfonyl)-4-(3-quinolin-2-ylisoxazol-5-yl)butanamide], the IC50 in experiment [1] (setting [5]) was 22.1 nM. The MIC is 8 µg/mL (≈ 20.5 µM) in experiment [2], 32 µg/mL (≈ 82.2 µM) in experiment [3] and more than 64 µg/mL in experiment [4].
For `CC(CCc1cc(-c2ccc(F)c(F)c2F)no1)(C(=O)NO)S(C)(=O)=O` (racemic) [Example 36, N-hydroxy-2-methyl-2-(methylsulfonyl)-4-[3-(2,3,4-trifluorophenyl)isoxazol-5-yl]butanamide] the same measures were 3.9 nM, 1 µg/mL (≈ 2.55 µM), 16 µg/mL (≈ 40.8 µM) and more than 64 µg/mL.

By IC50 is commonly meant the concentration needed to halve the response being measured. By MIC is commonly meant the least concentration at which growth counts as inhibited.
